Data on 20 compounds can be found in patent US11247965B2 (VenatoRx Pharmaceuticals, Inc., priority 2017, dated 2022).

In series [1] the test system is HBV replication in HepAD38 cells. Briefly: Anti-HBV activity in HepAD38 cells, extracellular HBV DNA by QPCR. Format: cell-based, HBV (genotype D, serotype ayw). Conditions: Hepatitis B virus, HePAD38, 168 h, read-out: Anti-HBV EC50, HepAD38 cells, extracellular HBV DNA by QPCR, 7 days of incubation. Put shortly:
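Seven-day compound exposure (30 μM down to 10 nM, half-log steps) after tetracycline withdrawal induced HBV replication in HepAD38 cells. Extracellular viral DNA measured by QPCR (copies/mL via standard curve), normalised to DMSO wells; EC50 from 4-parameter non-linear regression.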

Series [2] can be described thus: In vitro cytotoxicity, MTT cell viability assay in HepG2 cells. Type of series: cell-based. Conditions: human, Cytotoxicity CC50. Put shortly: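 HepG2 cells incubated 7 days at 37 °C, 5% CO2 with compounds from 30 μM to 1.0 nM (8 half-log dilutions). Viability read as MTT formazan absorbance at 492 nm, normalised to vehicle controls; CC50 from 4-parameter non-linear regression.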
A general note: Tetrazolium dyes change colour on reduction, which living cells bring about.

The EC50 is the concentration needed to bring the measured effect to its halfway point. A word on the CC50: it is the concentration giving 50% cytotoxicity.

For the compound `Cn1cc(NC(=O)c2ccc(F)c(C(F)(F)C(=O)N3CCC(O)(CO)CC3)c2)cn1` [Example 182, 3-(1,1-difluoro-2-(4-hydroxy-4-(hydroxymethyl)piperidin-1-yl)-2-oxoethyl)-4-fluoro-N-(1-methyl-1H-pyrazol-4-yl)benzamide], the EC50 in series [1] is 5 to 30 µM. Besides, in series [2], the CC50 at 7 days was > 30 µM.

Regarding `Cc1cc(NC(=O)c2ccc(F)c(C(F)(F)C(=O)N3CC4COCC(C3)C4O)c2)ccc1F` (stereo not shown) [Example 310, 3-(1,1-difluoro-2-(9-hydroxy-3-oxa-7-azabicyclo[3.3.1]nonan-7-yl)-2-oxoethyl)-4-fluoro-N-(4-fluoro-3-methylphenyl)benzamide], the EC50 in series [1] is < 5 µM. In series [2], the CC50 at 7 days was > 30 µM.

Take `Cc1cc(NC(=O)c2ccc(F)c(C(F)(F)C(=O)N[C@H]3CCOB3O)c2)ccc1F` [Example 150, (R)-3-(1,1-difluoro-2-((2-hydroxy-1,2-oxaborolan-3-yl)amino)-2-oxoethyl)-4-fluoro-N-(4-fluoro-3-methylphenyl)benzamide]: in series [1], the half-maximal effective concentration (EC50) was < 5 µM. Besides, the 50% cytotoxic concentration (CC50) at 7 days in series [2] is > 30 µM.

On to `O=C(Nc1ccc(F)c(F)c1)c1ccc(F)c(C(F)(F)C(=O)N2CCC(O)CC2)c1` [Example 2, 3-(1,1-difluoro-2-(4-hydroxypiperidin-1-yl)-2-oxoethyl)-N-(3,4-difluorophenyl)-4-fluorobenzamide], for which, in series [1], the EC50 is < 5 µM. This compound also yielded a half-maximal cytotoxic concentration (CC50) at 7 days in series [2] of 5 to 30 µM.

Regarding `Cc1cc(NC(=O)c2ccc(F)c(C(F)(F)C(=O)N3[C@@H]4CNC[C@H]3COC4)c2)ccc1F` [Example 208, 3-(2-((1R,5S)-3-oxa-7,9-diazabicyclo[3.3.1]nonan-9-yl)-1,1-difluoro-2-oxoethyl)-4-fluoro-N-(4-fluoro-3-methylphenyl)benzamide], the EC50 in series [1] is < 5 µM. Also, the CC50 at 7 days in series [2] is 5 to 30 µM.

With `Cc1cc(NC(=O)c2ccc(F)c(C(F)(F)C(=O)N3C4CC[C@@H]3C[C@@H](C(=O)N3CCOCC3)C4)c2)ccc1F` [Example 260, 3-(1,1-difluoro-2-((1R,3s,5S)-3-(morpholine-4-carbonyl)-8-azabicyclo[3.2.1]octan-8-yl)-2-oxoethyl)-4-fluoro-N-(4-fluoro-3-methylphenyl)benzamide], the concentration for a half-maximal effect (EC50) in series [1] was < 5 µM. For the same compound, in series [2], the cytotoxic concentration (CC50) at 7 days was > 30 µM.

`Cc1ccc(C(=O)Nc2ccc(F)c(F)c2)cc1C(F)(F)C(=O)N1CCC(O)CC1` [Example 10, 3-(1,1-difluoro-2-(4-hydroxypiperidin-1-yl)-2-oxoethyl)-N-(3,4-difluorophenyl)-4-methylbenzamide]: in series [1], the EC50 was 5 to 30 µM. Besides, the cytotoxic concentration (CC50) at 7 days in series [2] is 5 to 30 µM.

Turning to `Cc1cc(NC(=O)c2ccc(F)c(C(F)(F)C(=O)N3[C@@H]4CC[C@H]3C[C@@H](NC(=O)OC(C)(C)C)C4)c2)ccc1F` [Example 225, tert-butyl ((1R,3r,5S)-8-(2,2-difluoro-2-(2-fluoro-5-((4-fluoro-3-methylphenyl)carbamoyl)phenyl)acetyl)-8-azabicyclo[3.2.1]octan-3-yl)carbamate], the half-maximal effective concentration (EC50) in series [1] was < 5 µM. In series [2], this compound showed a cytotoxic concentration (CC50) at 7 days of 5 to 30 µM.

For the compound `Cc1cc(NC(=O)c2ccn(C)c2C(F)(F)C(=O)NC2CCC(O)CC2)ccc1F` (stereo not shown) [Example 126, 2-(1,1-difluoro-2-(((1s,4s)-4-hydroxycyclohexyl)amino)-2-oxoethyl)-N-(4-fluoro-3-methylphenyl)-1-methyl-1H-pyrrole-3-carboxamide], the EC50 in series [1] lay within 5 to 30 µM. Besides, in series [2], the CC50 at 7 days is > 30 µM.

Regarding `Cc1cc(NC(=O)c2cc(C(O)(C(=O)NC(C)(C)C)C(C)C)cn2C)ccc1F` (stereo not shown) [Example 124, 4-(1-(tert-butylamino)-2-hydroxy-3-methyl-1-oxobutan-2-yl)-N-(4-fluoro-3-methylphenyl)-1-methyl-1H-pyrrole-2-carboxamide], the EC50 in series [1] lay in the range of 5 to 30 µM. The cytotoxic concentration (CC50) at 7 days in series [2] is > 30 µM.

As for `Cc1cc(NC(=O)c2ccc(F)c(C(F)(F)C(=O)N3CC4CCC(C3)C4O)c2)ccc1F` [Example 281, 3-(1,1-difluoro-2-((1R,5S,8s)-8-hydroxy-3-azabicyclo[3.2.1]octan-3-yl)-2-oxoethyl)-4-fluoro-N-(4-fluoro-3-methylphenyl)benzamide], in series [1], the EC50 was < 5 µM. In addition, in series [2], the CC50 at 7 days lay within 5 to 30 µM.

In the case of `O=C(Nc1cc(F)c(F)c(F)c1)c1ccc(F)c(C(F)(F)C(=O)N2[C@@H]3CC[C@H]2C[C@@H](O)C3)c1` [Example 173], in series [1], the EC50 was < 5 µM. This compound also returned a half-maximal cytotoxic concentration (CC50) at 7 days in series [2] of 5 to 30 µM.

`CC(=O)N[C@@H]1CC2CC[C@H](C1)N2C(=O)C(F)(F)c1cc(C(=O)Nc2ccc(F)c(C)c2)ccc1F` [Example 263, 3-(2-((1R,3r,5S)-3-acetamido-8-azabicyclo[3.2.1]octan-8-yl)-1,1-difluoro-2-oxoethyl)-4-fluoro-N-(4-fluoro-3-methylphenyl)benzamide]: in series [1], the EC50 is < 5 µM. The CC50 at 7 days in series [2] lay in the range of 5 to 30 µM.

As for `O=C(Nc1ccc(F)c(Cl)c1)c1ccc(F)c(C(F)(F)C(=O)N2CCC(O)CC2)c1` [Example 85, N-(3-chloro-4-fluorophenyl)-3-(1,1-difluoro-2-(4-hydroxypiperidin-1-yl)-2-oxoethyl)-4-fluorobenzamide], the concentration giving a half-maximal response (EC50) in series [1] was < 5 µM. The compound further had a CC50 at 7 days in series [2] of 5 to 30 µM.

With `Cc1cc(NC(=O)c2ccc(F)c(C(F)(F)C(=O)N3[C@@H]4CCC[C@H]3C[C@H](O)C4)c2)ccc1F` [Example 217, 3-(1,1-difluoro-2-((1R,3s,5S)-3-hydroxy-9-azabicyclo[3.3.1]nonan-9-yl)-2-oxoethyl)-4-fluoro-N-(4-fluoro-3-methylphenyl)benzamide], in series [1], the EC50 is < 5 µM. The same compound came in with a 50% cytotoxic concentration (CC50) at 7 days in series [2] of 5 to 30 µM.

As to `Cc1cc(NC(=O)c2ccc(Br)c(C(F)(F)C(=O)N3CCC(O)CC3)c2)ccc1F` [Example 62, 4-bromo-3-(1,1-difluoro-2-(4-hydroxypiperidin-1-yl)-2-oxoethyl)-N-(4-fluoro-3-methylphenyl)benzamide], the EC50 in series [1] is < 5 µM. Besides, in series [2], the half-maximal cytotoxic concentration (CC50) at 7 days was > 30 µM.

`Cc1cc(NC(=O)c2ccc(F)c(C(F)(F)C(=O)N3[C@@H]4CC[C@H]3CC(O)(CC(N)=O)C4)c2)ccc1F` (stereo partly drawn) [Example 241, 3-(2-((1R,5S)-3-(2-amino-2-oxoethyl)-3-hydroxy-8-azabicyclo[3.2.1]octan-8-yl)-1,1-difluoro-2-oxoethyl)-4-fluoro-N-(4-fluoro-3-methylphenyl)benzamide]: in series [1], the EC50 was < 5 µM. This compound showed a CC50 at 7 days in series [2] of 5 to 30 µM.

As for `O=C(Nc1ccc(F)c(F)c1)c1ccc(F)c(C(F)(F)C(=O)N2CCCCC2)c1` [Example 11, 3-(1,1-difluoro-2-oxo-2-(piperidin-1-yl)ethyl)-N-(3,4-difluorophenyl)-4-fluorobenzamide], the concentration for a half-maximal effect (EC50) in series [1] fell in the range of 5 to 30 µM. Besides, the CC50 at 7 days in series [2] was 5 to 30 µM.

As to `O=C(Nc1ccc(F)c(F)c1)c1ccc(F)c(C(F)(F)C(=O)NC[C@@H](O)CO)c1` [Example 53, (R)—N-(3,4-difluorophenyl)-3-(2-((2,3-dihydroxypropyl)amino)-1,1-difluoro-2-oxoethyl)-4-fluorobenzamide], the half-maximal effective concentration (EC50) in series [1] is < 5 µM. In series [2], the CC50 at 7 days was > 30 µM.

In the case of `Cc1cc(NC(=O)c2ccc(F)c(C(F)(F)C(=O)NC34CCC(O)(CC3)C4)c2)ccc1F` [Example 254, 3-(1,1-difluoro-2-((4-hydroxybicyclo[2.2.1]heptan-1-yl)amino)-2-oxoethyl)-4-fluoro-N-(4-fluoro-3-methylphenyl)benzamide], the EC50 in series [1] fell in the range of 5 to 30 µM. For the same compound, the 50% cytotoxic concentration (CC50) at 7 days in series [2] was > 30 µM.
